Measured values reported in patent US20250177357A1, “METHODS FOR TREATING HYPERTROPHIC CARDIOMYOPATHY” (priority 2021, published 2025).

Key:
healthy adults = test: Phase 1 first-in-human study: safety and tolerability (adverse events), SAD and MAD cohorts; conditions: in vivo
Text: Study Overview and Ethics. The study used a randomized, placebo-controlled, single-ascending dose (SAD) and multiple-ascending dose (MAD) design (FIG. 2). […] Dose escalation was to be stopped when this range was achieved, or when a non-tolerated dose was identified, if earlier.
Participants and Treatments. To be eligible for this study, participants were to be healthy adults aged 18 to 55 years, with body mass index of 18.0 to 32.0 kg/m^2, normal electrocardiogram (ECG) and clinical laboratory values, or only minor abnormalities that were deemed not clinically significant. Participants also had to have normal cardiac structure and function, with LVEF≥60% for the first 4 SAD cohorts, ≥65% for subsequent SAD cohorts, all MAD cohorts, and the food-effect cohort, and >55% for the CYP2D6-PM cohort. […]
Safety and tolerability. Safety was assessed by the incidence of adverse events (AEs) and by incidence of reduced LVEF. […]
For safety monitoring, participants in all cohorts had periodic echocardiograms, which were assessed by a cardiologist. […] In addition, participants in all cohorts were monitored with continuous 12-lead ECG recording using Holter monitors. […] In the SAD, MAD, and CYP2D6-PM cohorts, cardiodynamic ECGs (triplicate 10-second, 12-lead ECG recordings) were obtained prior to the corresponding PK blood and ECG intervals quantitated by qualified readers.

[1] = system: patients with symptomatic oHCM; test: Open-label extension trial in oHCM: safety; assay type: in vivo, human
Text: An open-label extension clinical trial of CK-274 in patients with symptomatic oHCM was initiated.
Patients who completed the study as described in Example 2 and had not developed atrial fibrillation were eligible to enroll in the study. Echo-guided dose titration based on site reads was managed by the investigator and could occur at any time during the trial, as described below.
Each patient received Dose 1 of CK-274 once daily for 2 weeks. […] Patients were up-titrated to Dose 2 if either of the following conditions were met on echocardiography: (1) resting LVOT-G≥30 mmHg and the biplane LVEF≥50%; or (2) resting LVOT-G<30 mmHg, post-Valsalva LVOT-G≥50 mmHg, and the biplane LVEF≥50%. Otherwise, the patient remained on 5 mg of CK-274. If LVEF was […], treatment was discontinued. If LVEF was <40%, treatment is interrupted.
Ambulatory cardiac monitoring is performed on weeks 48, 96, 144, 192 and 240. Cardiac magnetic resonance is monitored at weeks 48, 144 and 240. (See FIG. 26).

CCc1nc(-c2ccc3c(c2)CC[C@H]3NC(=O)c2cnn(C)c2)no1 [aficamten, (R)—N-(5-(5-ethyl-1,2,4-oxadiazol-3-yl)-2,3-dihydro-1H-inden-1-yl)-1-methyl-1H-pyrazole-4-carboxamide]
Time to resolution of AEs of decreased ejection fraction <45% (healthy adults; human): 2.5 to 4.6 h | Post-dose LVEF of 1 participant with LVEF <50% (healthy adults): 46.2% | Patients with TEAE Leading to Dose Reduction ([1]; N = 38): 2 (5%) | Patients with TEAE Leading to Drug Interruption ([1]; N = 38): 1 (3%) | Patients with at Least One Related TEAE ([1]; N = 38): 8 (21%) | Patients with at Least One Severe TEAE ([1]; N = 38): 1 (3%) | Patients with at Least One TEAE ([1]; N = 38): 28 (74%) | Patients with at Least One TESAE ([1]; N = 38): 2 (5%) | LVEF of one patient with recurrent alcohol induced atrial fibrillation ([1]; on 15 mg of CK-274): 47% | Events of LVEF <50% attributed to CK-274 ([1]; open-label extension): no events
